From US9938261B2, “Heterocyclic compounds and methods of use thereof” (AMBIT BIOSCIENCES CORPORATION, priority 2011, dated 2018)
Read-outs that look alike come from different tables or passages of the source.

Legend:
M-NFS-60 cells = experiment: M-NFS-60 cell proliferation assay (Alamar Blue); format: cell-based, mouse; settings: read-out: CSF1R M-NFS-60 CTB:IC50
Procedure, shortened: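 Alamar Blue reduction (3 h; 560/590 nm) measured viability after 72 h, 37 °C treatment with nine half-log compound concentrations at 0.5% DMSO. Cells: M-CSF-dependent (20 ng/mL) murine M-NFS-60 in RPMI plus 10% FBS. IC50s, averaged from duplicates, reflect half-maximal inhibition of proliferation relative to control.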

CSF1R = CSF1R (Homo sapiens, UniProt P07333); experiment: Competition binding assay, CSF1R Kd; parameters: made in house
Chain of CSF1R (P07333 20-972): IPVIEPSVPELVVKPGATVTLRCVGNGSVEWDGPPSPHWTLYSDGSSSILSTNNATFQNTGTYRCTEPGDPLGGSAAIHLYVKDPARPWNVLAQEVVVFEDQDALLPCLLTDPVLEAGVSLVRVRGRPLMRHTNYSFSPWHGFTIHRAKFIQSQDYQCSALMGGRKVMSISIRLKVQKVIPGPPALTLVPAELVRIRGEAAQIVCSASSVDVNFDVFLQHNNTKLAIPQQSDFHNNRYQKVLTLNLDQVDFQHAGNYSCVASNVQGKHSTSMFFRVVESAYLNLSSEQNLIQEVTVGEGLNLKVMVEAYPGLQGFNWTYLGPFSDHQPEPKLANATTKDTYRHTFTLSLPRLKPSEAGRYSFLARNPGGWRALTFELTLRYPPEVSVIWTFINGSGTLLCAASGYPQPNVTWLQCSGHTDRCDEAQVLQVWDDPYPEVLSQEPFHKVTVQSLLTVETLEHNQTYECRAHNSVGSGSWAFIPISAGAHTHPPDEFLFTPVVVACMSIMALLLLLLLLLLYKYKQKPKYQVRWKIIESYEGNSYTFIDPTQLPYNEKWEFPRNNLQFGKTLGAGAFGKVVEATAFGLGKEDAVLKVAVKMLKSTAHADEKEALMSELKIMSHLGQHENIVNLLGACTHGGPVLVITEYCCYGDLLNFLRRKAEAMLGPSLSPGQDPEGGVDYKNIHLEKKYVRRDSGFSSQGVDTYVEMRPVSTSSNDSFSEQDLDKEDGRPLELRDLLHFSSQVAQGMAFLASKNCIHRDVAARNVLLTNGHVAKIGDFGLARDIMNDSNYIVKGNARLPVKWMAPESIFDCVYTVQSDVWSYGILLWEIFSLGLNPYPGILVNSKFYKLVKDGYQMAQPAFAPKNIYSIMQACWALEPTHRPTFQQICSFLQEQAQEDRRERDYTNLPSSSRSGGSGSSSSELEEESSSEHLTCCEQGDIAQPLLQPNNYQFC
Procedure, shortened: (§1)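 Kinases as T7-phage fusions or HEK-293-expressed DNA-tagged constructs competed against immobilized biotinylated ligand on streptavidin beads, 1 h at room temperature in binding buffer. Bound kinase eluted and quantified by qPCR; Kd from eleven-point threefold dilution series.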

[1] = target: kinase panel containing either 386 or 392 distinct kinases; experiment: Kinase selectivity score S10 from competition binding panel
Procedure, shortened: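 S10 is the number of kinases with percent-of-control under 10, divided by all distinct wild-type kinases tested, from a single 10 μM concentration. Binding measured by qPCR of kinase recovered from ligand-coated beads after 1 h equilibrium at room temperature; kinases were phage fusions or DNA-tagged HEK-293 products.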

PDGFRβ = target: T1, PDGFRβ (Homo sapiens, UniProt P09619); experiment: Competition binding assay, PDGFRβ Kd
T1 construct: made in house
T1 sequence (P09619 33-1106): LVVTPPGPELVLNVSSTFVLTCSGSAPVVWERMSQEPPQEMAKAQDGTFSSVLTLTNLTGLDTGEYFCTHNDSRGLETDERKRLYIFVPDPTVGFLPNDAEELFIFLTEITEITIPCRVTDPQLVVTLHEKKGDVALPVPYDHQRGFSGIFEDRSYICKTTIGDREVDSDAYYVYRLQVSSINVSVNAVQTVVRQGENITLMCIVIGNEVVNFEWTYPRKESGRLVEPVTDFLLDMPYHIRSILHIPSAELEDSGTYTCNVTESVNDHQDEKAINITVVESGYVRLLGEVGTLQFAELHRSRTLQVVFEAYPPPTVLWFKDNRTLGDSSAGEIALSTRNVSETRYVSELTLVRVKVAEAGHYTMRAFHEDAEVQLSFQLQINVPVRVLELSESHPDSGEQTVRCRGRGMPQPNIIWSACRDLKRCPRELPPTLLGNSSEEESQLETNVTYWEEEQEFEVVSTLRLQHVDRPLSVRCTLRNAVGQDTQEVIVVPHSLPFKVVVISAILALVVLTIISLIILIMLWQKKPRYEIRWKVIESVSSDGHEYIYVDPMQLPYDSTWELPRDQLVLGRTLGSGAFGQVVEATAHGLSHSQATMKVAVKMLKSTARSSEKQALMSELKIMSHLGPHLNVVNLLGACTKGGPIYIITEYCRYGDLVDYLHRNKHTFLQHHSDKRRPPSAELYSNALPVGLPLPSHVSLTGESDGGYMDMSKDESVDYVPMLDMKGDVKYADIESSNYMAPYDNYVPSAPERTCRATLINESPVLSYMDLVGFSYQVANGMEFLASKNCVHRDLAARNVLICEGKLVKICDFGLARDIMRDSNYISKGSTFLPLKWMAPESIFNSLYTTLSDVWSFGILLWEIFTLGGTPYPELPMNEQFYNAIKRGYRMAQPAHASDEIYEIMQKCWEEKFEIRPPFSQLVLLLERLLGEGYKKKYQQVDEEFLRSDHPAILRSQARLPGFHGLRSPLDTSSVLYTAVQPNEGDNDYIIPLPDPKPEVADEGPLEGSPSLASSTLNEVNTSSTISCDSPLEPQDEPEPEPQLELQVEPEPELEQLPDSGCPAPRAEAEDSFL
Procedure, shortened: as §1

KIT = target: T2, KIT (Homo sapiens, UniProt P10721); experiment: Competition binding assay, KIT Kd
T2 construct: made in house
T2 sequence (P10721 26-976): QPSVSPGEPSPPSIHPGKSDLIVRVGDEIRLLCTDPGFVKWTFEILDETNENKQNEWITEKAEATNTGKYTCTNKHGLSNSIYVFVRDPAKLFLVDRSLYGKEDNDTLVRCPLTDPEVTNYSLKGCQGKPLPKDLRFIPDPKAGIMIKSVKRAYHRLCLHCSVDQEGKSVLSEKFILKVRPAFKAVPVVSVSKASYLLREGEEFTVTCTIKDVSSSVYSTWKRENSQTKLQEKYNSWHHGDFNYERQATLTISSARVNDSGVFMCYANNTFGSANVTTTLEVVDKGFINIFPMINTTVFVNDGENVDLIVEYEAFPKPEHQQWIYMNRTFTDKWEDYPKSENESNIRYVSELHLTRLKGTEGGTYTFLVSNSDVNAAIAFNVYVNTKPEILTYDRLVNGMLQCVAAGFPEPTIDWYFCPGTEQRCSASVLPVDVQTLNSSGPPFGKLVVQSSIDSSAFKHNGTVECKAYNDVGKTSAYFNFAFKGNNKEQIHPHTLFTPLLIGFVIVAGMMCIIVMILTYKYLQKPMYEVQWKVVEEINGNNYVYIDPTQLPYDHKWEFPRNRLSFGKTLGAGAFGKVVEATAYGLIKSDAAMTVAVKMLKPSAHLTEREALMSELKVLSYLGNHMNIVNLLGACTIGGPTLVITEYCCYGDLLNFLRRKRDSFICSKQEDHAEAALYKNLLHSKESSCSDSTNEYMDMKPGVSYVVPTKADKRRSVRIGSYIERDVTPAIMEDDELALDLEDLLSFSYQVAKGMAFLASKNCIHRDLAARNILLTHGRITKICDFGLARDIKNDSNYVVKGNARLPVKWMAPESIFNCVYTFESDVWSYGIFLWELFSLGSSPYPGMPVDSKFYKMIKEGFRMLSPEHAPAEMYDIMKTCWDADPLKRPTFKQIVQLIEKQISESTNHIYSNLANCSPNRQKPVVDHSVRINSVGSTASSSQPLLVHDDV
Procedure, shortened: as §1

FLT3 = target: T3, FLT3 (Homo sapiens, UniProt P36888); experiment: Competition binding assay, FLT3 Kd
T3 construct: made in house
T3 sequence (P36888 27-993): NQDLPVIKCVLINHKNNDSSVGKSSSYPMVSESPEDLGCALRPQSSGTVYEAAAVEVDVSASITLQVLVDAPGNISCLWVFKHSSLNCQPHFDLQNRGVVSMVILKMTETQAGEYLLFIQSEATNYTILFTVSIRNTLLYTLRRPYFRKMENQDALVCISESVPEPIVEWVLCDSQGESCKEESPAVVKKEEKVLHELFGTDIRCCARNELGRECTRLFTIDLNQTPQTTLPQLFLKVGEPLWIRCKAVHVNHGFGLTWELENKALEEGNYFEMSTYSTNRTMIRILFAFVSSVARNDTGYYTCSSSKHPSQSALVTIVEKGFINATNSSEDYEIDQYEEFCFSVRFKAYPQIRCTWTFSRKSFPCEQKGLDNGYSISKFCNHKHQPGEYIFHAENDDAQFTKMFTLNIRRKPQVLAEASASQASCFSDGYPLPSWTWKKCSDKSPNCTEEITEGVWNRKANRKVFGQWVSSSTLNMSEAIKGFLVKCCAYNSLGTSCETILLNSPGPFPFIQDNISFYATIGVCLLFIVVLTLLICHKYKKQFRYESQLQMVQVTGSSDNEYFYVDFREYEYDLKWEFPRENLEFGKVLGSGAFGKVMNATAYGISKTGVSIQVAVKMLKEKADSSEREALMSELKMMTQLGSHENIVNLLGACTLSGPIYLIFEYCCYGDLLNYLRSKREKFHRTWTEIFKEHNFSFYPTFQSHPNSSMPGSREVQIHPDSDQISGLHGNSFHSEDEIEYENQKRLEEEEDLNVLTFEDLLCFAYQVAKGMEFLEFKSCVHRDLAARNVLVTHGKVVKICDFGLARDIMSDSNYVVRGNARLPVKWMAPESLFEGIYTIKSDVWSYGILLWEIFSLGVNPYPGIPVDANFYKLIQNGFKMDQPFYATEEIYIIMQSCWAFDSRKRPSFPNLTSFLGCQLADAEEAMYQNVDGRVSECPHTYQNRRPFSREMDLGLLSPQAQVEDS
Procedure, shortened: as §1

[2] = Mus musculus, M-NFS-60 cell proliferation
[3] = 10 μM, panel of 386 or 392 distinct kinases

Kd (CSF1R; competition binding) | Kinase specificity S(10) [1, 3] | Kd (PDGFRβ; competition binding) | Kd (KIT; competition binding) | Kd (FLT3; competition binding) | Compound | IC50 (M-NFS-60 cells; [2]) | IC50 (M-NFS-60 cells; 72 hours incubation, M-CSF 20 ng/mL) | Kd (CSF1R) | Kinase specificity S(10) ([1]; compounds at 10 μM, 386 or 392 distinct kinases) | Kd (PDGFRβ) | Kd (KIT) | Kd (FLT3)
5 to 20 nM | A (A≤0.01) | 50 to 500 nM | 100 to 500 nM | 1000 to 5000 nM | CON=C(C)c1ccn2c(Cc3ccc4nc(N[C@@H]5CCCC[C@H]5O)sc4c3)cnc2c1 [Example 204, 1-(3-((2-(((1R,2R)-2-hydroxycyclohexyl)amino)benzo[d]thiazol-6-yl)methyl)imidazo[1,2-a]pyridin-7-yl)ethanone O-methyl oxime] | 50 to 400 nM | – | – | – | – | – | –
5 to 20 nM | A (A≤0.01) | 50 to 500 nM | ≤ 100 nM | 200 to 1000 nM | O[C@@H]1CCCC[C@H]1Nc1nc2ccc(Cn3cnc4cc(Br)cc(F)c43)cc2s1 [Example 203, (1R,2R)-2-((6-((5-bromo-7-fluoro-1H-benzo[d]imidazol-1-yl)methyl)benzo[d]thiazol-2-yl)amino)cyclohexanol] | 50 to 400 nM | – | – | – | – | – | –
5 to 20 nM | A (A≤0.01) | ≤ 50 nM | ≤ 100 nM | 200 to 1000 nM | O[C@@H]1CCCC[C@H]1Nc1nc2ccc(Cn3cnc4cc(C(F)(F)F)cnc43)cc2s1 [Example 212, (1R,2R)-2-((6-((6-(trifluoromethyl)-3H-imidazo[4,5-b]pyridin-3-yl)methyl)benzo[d]thiazol-2-yl)amino)cyclohexanol] | 50 to 400 nM | – | – | – | – | – | –
– | – | – | – | – | either (1R,2R)-1-((6-((4-(1-methyl-1H-pyrazol-4-yl)-1H-imidazol-1-yl)methyl)benzo[d]thiazol-2-yl)amino)-2,3-dihydro-1H-inden-2-ol or (1R,2R)-1-((6-((5-(1-methyl-1H-pyrazol-4-yl)-1H-imidazol-1-yl)methyl)benzo[d]thiazol-2-yl)amino)-2,3-dihydro-1H-inden-2-ol [Example 83] | – | 50 to 400 nM | ≤ 5 nM | A (A≤0.01) | 50 to 500 nM | 500 to 2000 nM | ≤ 200 nM
